In assay [1] the target is Endothelial lipase (EL) (Homo sapiens (Human), UniProt Q9Y5X9). As to the kind of experiment: EL assay: endothelial lipase activity with fluorescent substrate A10070 in DMPG vesicles. Type of assay: biochemical. The procedure, abridged: (§1)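 Vesicles prepared: A10070 dried with DMPG, resuspended in HEPES pH 8.0/NaCl/EDTA, sonicated on ice. Enzyme incubated with compound 30 min at 37° C. Reaction started with 1:10 diluted vesicles. Fluorescence (490/530 nm) followed 60 min; slope from 300–900 secs gives rate.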

The target in assay [2] is hepatic lipase (HL) (Homo sapiens (Human), UniProt P11150). As to the kind of experiment: HL assay: hepatic lipase activity with fluorescent substrate A10070 in DMPG vesicles. The format is biochemical. The procedure, abridged:
as §1

Where [3] appears, read: EL from conditioned media of HT-1080 cells, 30 min incubation with compound at 37° C., A10070/DMPG vesicles.
The mark [4] stands for this setting: HL partially purified from conditioned media of COS cells, 30 min incubation with compound at 37° C., A10070/DMPG vesicles.

Each structure is given as a SMILES string. Read-outs that look alike come from different tables or passages of the source. Where only a bound is given, the exact number is not on record here.

Chain of hepatic lipase (HL) (P11150 23-499, species assumed): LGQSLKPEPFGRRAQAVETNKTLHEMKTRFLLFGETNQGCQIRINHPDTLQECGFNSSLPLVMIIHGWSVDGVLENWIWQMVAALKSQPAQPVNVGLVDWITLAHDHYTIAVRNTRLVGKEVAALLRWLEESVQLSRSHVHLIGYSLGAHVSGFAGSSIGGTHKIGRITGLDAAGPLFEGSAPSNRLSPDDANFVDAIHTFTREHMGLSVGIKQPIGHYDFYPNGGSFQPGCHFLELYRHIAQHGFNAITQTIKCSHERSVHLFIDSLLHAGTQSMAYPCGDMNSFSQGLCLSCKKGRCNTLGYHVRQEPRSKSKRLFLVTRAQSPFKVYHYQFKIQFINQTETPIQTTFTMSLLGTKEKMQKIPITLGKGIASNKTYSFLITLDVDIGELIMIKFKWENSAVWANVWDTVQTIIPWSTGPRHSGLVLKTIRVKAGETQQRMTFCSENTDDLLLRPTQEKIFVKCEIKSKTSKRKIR
Chain of Endothelial lipase (EL) (Q9Y5X9 21-500): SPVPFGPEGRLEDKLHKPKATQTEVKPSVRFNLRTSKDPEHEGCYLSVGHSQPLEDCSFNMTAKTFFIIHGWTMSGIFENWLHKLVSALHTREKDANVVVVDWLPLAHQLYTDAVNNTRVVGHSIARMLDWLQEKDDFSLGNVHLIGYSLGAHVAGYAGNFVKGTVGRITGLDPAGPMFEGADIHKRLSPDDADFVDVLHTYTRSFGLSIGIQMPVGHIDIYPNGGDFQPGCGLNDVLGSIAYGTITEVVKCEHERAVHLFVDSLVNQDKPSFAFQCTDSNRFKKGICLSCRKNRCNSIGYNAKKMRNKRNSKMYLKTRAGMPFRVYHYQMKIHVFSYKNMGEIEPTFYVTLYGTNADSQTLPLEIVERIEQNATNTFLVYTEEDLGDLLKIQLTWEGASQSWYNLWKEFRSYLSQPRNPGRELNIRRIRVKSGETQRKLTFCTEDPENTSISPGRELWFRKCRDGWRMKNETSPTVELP

Consider `CC(C)(C)OC(=O)c1ccc2nc(C(C(=O)NCCS(N)(=O)=O)S(=O)(=O)CCC(F)(F)F)sc2c1` (centres unmarked) [Example B196, tert-Butyl 2-(2-oxo-2-((2-sulfamoylethyl)amino)-1-((3,3-trifluoropropyl)sulfonyl)ethyl)benzo[d]thiazole-6-carboxylate], for which the IC50 came to 65 nM in assay [1] (setting [3]) and 379 nM in assay [2] (setting [4]).
Consider `CC(C)(O)CNC(=O)c1cccc(-c2ccc3nc(C(C(=O)NCCS(N)(=O)=O)S(=O)(=O)CCC(F)(F)F)sc3c2)c1` (centres unmarked) [Example B345, N-(2-hydroxy-2-methyl-propyl)-3-(2-{[(2-sulfamoylethyl)carba-moyl](3,3,3-tnfluoropro-panesulfonyl)methyl}-1,3-benzothiazol-6-yl)benzamide], for which the 50% inhibitory concentration (IC50) in assay [1] turned out to be 1 nM; in assay [2], 213 nM.
In the same order, the values of `CC(=O)Nc1ccc(-c2ccc3nc(C(C(=O)NCCS(N)(=O)=O)S(=O)(=O)Cc4ccc(C(F)(F)F)cc4)sc3c2)cc1` (centres unmarked) [Example B287, 2-[6-(4-acetamidophenyl)-1,3-benzothiazol-2-yl]-N-(2-sulfamoylethyl)-2-{[4-(trifluoromethyl)phen-yl]methanesulfonyl}a-cetamide] are 7 nM and 90 nM.
Turning to `COCCNC(=O)c1cccc(-c2ccc3nc(C(C(=O)NCCS(N)(=O)=O)S(=O)(=O)CCC(F)(F)F)sc3c2)c1` (centres unmarked) [Example B202, N-(2-methoxyethyl)-3-(2-(2-oxo-2-((2-sulfamoylethyl)amino)-1-((3,3,3-trifluoropropyl)sulfonyl)ethyl)benzo[d]thiazol-6-yl)benzamide], the IC50 was found to be 24 nM in assay [1] (setting [3]) and 170 nM in assay [2] (setting [4]).
For `CC1(O)CCN(C(=O)c2cccc(-c3ccc4nc(C(C(=O)NCCS(N)(=O)=O)S(=O)(=O)CCC(F)(F)F)sc4c3)c2)CC1` (centres unmarked) [Example B341, 2-{6-[3-(4-hydroxy-4-methylpiperidine-1-carbonyl)phenyl]-1,3-benzothiazol-2-yl}-N-(2-sulfamoylethyl)-2-(3,3,3-trifluoropropanesulfon-yl)acetamide], the IC50 in assay [1] amounted to 6 nM; in assay [2] it was 112 nM.
For the compound `COCCN(C)C(=O)c1ccc(-c2ccc3nc(C(C(=O)NCCS(N)(=O)=O)S(=O)(=O)CC4CC4)sc3c2)cc1` (centres unmarked) [Example B291, 4-(2-{cyclopropylmethane-sulfonyl[(2-sulfamoyl-ethyl)carbamoyl]methyl}-1,3-benzothiazol-6-yl)-N-(2-methoxyethyl)-N-methylbenzamide], the IC50 in assay [1] amounted to 0.7 nM; in assay [2], 35.2 nM.
In the same order, the values of `NS(=O)(=O)CCNC(=O)C(c1nc2ccc(-c3ccc(C(=O)NCCO)cc3)cc2s1)S(=O)(=O)CCC(F)(F)F` (centres unmarked) [Example B46, N-(2-hydroxyethyl)-4-(2-(2-oxo-2-((2-sulfamoylethyl)amino)-1-((3,3,3-trifluoropropyl)sul-fonyl)ethyl)-1,3-benzothiazol-6-yl)ben-zamide] are under 10 nM and 520 nM.
`NS(=O)(=O)CCNC(=O)C(c1nc2ccc(-c3cccc(C(=O)N4CC[C@H](O)C4)c3)cc2s1)S(=O)(=O)CCC(F)(F)F` (some centres unmarked) [Example B344]: the IC50 came to 13.1 nM in assay [1] and 22.2 nM in assay [2].
Regarding `COCCS(=O)(=O)C(C(=O)NCCS(N)(=O)=O)c1nc2ccc(-c3ccc(C(=O)N4CC[C@H](OC)C4)cc3)cc2s1` (stereo partly drawn) [Example B306, 2-(2-methoxyethane-sulfonyl)-2-(6-{4-[(3S)-3-methoxypyrrolidine-1-carbonyl]phenyl}-1,3-benzothiazol-2-yl)-N-(2-sulfamoylethyl)acetamide], the IC50 in assay [1] came out at 3.8 nM; in assay [2], 149 nM.
In the same order, the values of `COC1CN(C(=O)c2ccc(-c3ccc4nc(C(C(=O)NCCS(N)(=O)=O)S(=O)(=O)Cc5ccc(C(F)(F)F)cc5)sc4c3)cc2)C1` (centres unmarked) [Example B299] are 5.6 nM and 74.2 nM.
The matching figures for `NS(=O)(=O)c1cccc(CNC(=O)C(c2nc3ccc(-c4ccc(C(=O)N5CCCC5)cc4)cc3s2)S(=O)(=O)Cc2ccccc2)c1` (centres unmarked) [Example B277, 2-phenylmethanesulfonyl-2-{6-[4-(pyrrolidine-1-carbonyl)phenyl]-1,3-benzothiazol-2-yl}-N-[(3-sulfamoylphenyl)methyl]a-cetamide]: 191 nM and 84.9 nM.
With `CCCS(=O)(=O)C(C(=O)NCCS(N)(=O)=O)c1nc2ccc(-c3ccccc3)cc2s1` (centres unmarked) [Example B107, 2-(6-phenyl-1,3-benzothiazol-2-yl)-2-(propylsulfonyl)-N-(2-sulfamoylethyl)acetamide], the IC50 in assay [1] and in assay [2] was under 10 nM each time.
As to `CS(=O)(=O)C(C(=O)NCCS(N)(=O)=O)c1nc2ccc(-c3ccc(C(=O)N4CC[C@@H](O)C4)cc3)cc2s1` (stereo partly drawn) [Example B329, 2-(6-{4-[(3R)-3-hydroxy-pyrrolidine-1-carbonyl]phen-yl}-1,3-benzothiazol-2-yl)-2-methanesulfonyl-N-(2-sulfamoylethyl)a-cetamide], the half-maximal inhibitory concentration (IC50) in assay [1] came to 1.8 nM; in assay [2], 262 nM.
Take `NS(=O)(=O)CCNC(=O)C(c1nc2ccc(-c3ccc(CCO)cc3)cc2s1)S(=O)(=O)CC1CC1` (centres unmarked) [Example B60, 2-((cyclopropylmethyl)sul-fonyl)-2-(6-(4-(2-hydroxyethyl)phenyl)-1,3-benzothiazol-2-yl)-N-(2-sulfamoylethyl)acetamide]: the IC50 in assay [1] is under 10 nM; in assay [2] it was 61 nM.
In the same order, the values of `CC1(O)CN(C(=O)c2ccc(-c3ccc4nc(C(C(=O)NCCS(N)(=O)=O)S(C)(=O)=O)sc4c3)cc2)C1` (centres unmarked) [Example B318, 2-{6-[4-(3-hydroxy-3-methylazetidine-1-carbonyl)phenyl]-1,3-benzothiazol-2-yl}-2-methanesulfonyl-N-(2-sulfamoylethyl)acetamide] are 1.8 nM and 911 nM.
Regarding `COCCS(=O)(=O)C(C(=O)NCCS(N)(=O)=O)c1nc2ccc(-c3ccc(C(=O)N4CCOCC4)cc3)cc2s1` (centres unmarked) [Example B100, 2-((2-methoxyethyl)sulfonyl)-2-(6-(4-(4-morpholinyl-carbonyl)phenyl)-1,3-benzothiazol-2-yl)-N-(2-sulfamoylethyl)acetamide], the IC50 in assay [1] is under 10 nM; in assay [2], 1240 nM.
On to `COCCN(C)C(=O)c1ccc(-c2ccc3nc(C(C(=O)NCCS(N)(=O)=O)S(C)(=O)=O)sc3c2)cc1F` (centres unmarked) [Example B246, 2-fluoro-4-(2-{methanesul-fonyl[(2-sulfamoylethyl)car-bamoyl]methyl}-1,3-benzothiazol-6-yl)-N-(2-methoxyethyl)-N-methyl-benzamide], for which the IC50 was determined as 2.8 nM in assay [1] and 94.4 nM in assay [2].
As to `CC(F)(F)CNC(=O)c1cccc(-c2ccc3nc(C(C(=O)NCCS(N)(=O)=O)S(=O)(=O)CCC(F)(F)F)sc3c2)c1` (centres unmarked) [Example B339, N-(2,2-difluoropropyl)-3-(2-{[(2-sulfamoylethyl)car-bamoyl](3,3,3-trifluoropropanesulfon-yl)methyl}-1,3-benzothiazol-6-yl)benzamide], the figures for the concentration for half-maximal inhibition (IC50) in assay [1] and in assay [2] were 9.7 nM and 49.2 nM, respectively.
The matching figures for `COCCOc1ccc(-c2ccc3nc(C(C(=O)NCCS(N)(=O)=O)S(C)(=O)=O)sc3c2)cc1` (centres unmarked) [Example B48, 2-(6-(4-(2-methoxyethoxy)phenyl)-1,3-benzothiazol-2-yl)-2-(methylsulfonyl)-N-(2-sulfamoylethyl)acetamide]: under 10 nM and 11 nM.
The matching figures for `CS(=O)(=O)C(C(=O)NCCS(N)(=O)=O)c1nc2ccc(-c3ccccc3F)cc2s1` (centres unmarked) [Example B305, 2-[6-(2-fluorophenyl)-1,3-benzothiazol-2-yl]-2-methanesulfonyl-N-(2-sulfamoylethyl)acetamide]: 3 nM and 1 nM.
In the same order, the values of `Cc1nnc(CNC(=O)C(c2nc3ccc(-c4ccc(C(=O)N5CC(F)(F)C5)cc4)cc3s2)S(C)(=O)=O)o1` (centres unmarked) [Example B257, 2-{6-[4-(3,3-difluoroazetidine-1-carbonyl)phen-yl]-1,3-benzothiazol-2-yl}-2-methanesulfonyl-N-[(5-methyl-1,3,4-oxadiazol-2-yl)methyl]a-cetamide] are 32 nM and 53.3 nM.
Take `COCCNC(=O)c1ccc(-c2cc3sc(C(C(=O)NCCS(N)(=O)=O)S(=O)(=O)C(C)C)nc3cc2C(F)(F)F)cc1` (centres unmarked) [Example B269, N-(2-methoxyethyl)-4-{2-[(propane-2-sulfonyl)[(2-sul-famoylethyl)carbamoyl]meth-yl]-5-(trifluoro-methyl)-1,3-benzothiazol-6-yl}benzamide]: the IC50 in assay [1] worked out at 10 nM; in assay [2] it was 312 nM.
In the same order, the values of `CC1(O)CN(C(=O)c2ccc(-c3ccc4nc(C(C(=O)NCCS(N)(=O)=O)S(=O)(=O)Cc5ccc(OC(F)(F)F)cc5)sc4c3)cc2)C1` (centres unmarked) [Example B323, 2-{6-[4-(3-hydroxy-3-methylazetidine-1-carbonyl)phenyl]-1,3-benzothiazol-2-yl}-N-{2-sulfamoylethyl)-2-{[4-(trifluoromethoxy)phen-yl]methanesulfonyl}a-cetamide] are 2.6 nM and 81.7 nM.
On to `COc1ncccc1-c1ccc2nc(C(C(=O)NCCS(N)(=O)=O)S(C)(=O)=O)sc2c1` (centres unmarked) [Example B184, 2-(6-(2-methoxy-3-pyridinyl)-1,3-benzothiazol-2-yl)-2-(methylsulfonyl)-N-(2-sulfamoylethyl)acetamide], for which the IC50 is under 10 nM in assay [1] and 65 nM in assay [2].
The matching figures for `CC1(O)CN(C(=O)c2ccc(-c3ccc4sc(C(C(=O)NCCS(N)(=O)=O)S(C)(=O)=O)nc4c3)cc2)C1` (centres unmarked) [Example B319, 2-{5-[4-(3-hydroxy-3-methylazetidine-1-carbonyl)phenyl]-1,3-benzothiazol-2-yl}-2-methanesulfonyl-N-(2-sulfamoylethyl)acetamide]: 4.8 nM and 1000 nM.

By IC50 is commonly meant the concentration that inhibits the measured activity by half.
